Experimental data as given in patent publication US20040157821A1, “Sulfate of cephem compound” (priority 2001, published 2004).
Counter-ions that a name gives are not always drawn.

What was measured:
[1] = acceleration stability test at 40° C. of crystals filled into vials (residue rate, appearance); type: physicochemical; settings: for appearance (of powder) / residue rate (%): 40° C., vial
Method: (§1) The crystals obtained in the above examples were filled into vials and the residue rate thereof was examined through the acceleration stability test at 40° C. Further, the turbidity of an aqueous solution containing the crystal was determined.
(§2) The monosulfate crystal of compound (I) obtained in Example 9 was filled into vials and the residue rate thereof was examined through the acceleration stability test at 40° C. Further, the turbidity was determined.
As a reference compound, used was a lyophilization product of monohydrochloride of compound (I) (non-crystal, KF value: 1.7%, 0.6 H2O) obtained according to the method of Example 6-2 of WO 00/32606.
(§3) The crystals obtained in Example 10 were filled into vials and the residue rate thereof was examined through the acceleration stability test at 40° C. Further, the turbidity of solutions was determined.

[2] = turbidity / appearance of an aqueous solution containing the crystal; type: physicochemical; settings: for turbidity Abs(600 nm): aqueous solution, absorbance 600 nm
Method: as §1, §2, §3

| appearance (of powder) ([1]; 1 month) | residue rate (%) ([1]; 1 month) | appearance (of powder) ([1]; initial) | residue rate (%) ([1]; initial) | turbidity Abs(600 nm) ([2]; after 1 month at 40° C.) | turbidity Abs(600 nm) ([2]; initial) | appearance (of powder) ([1]; 2 month) | residue rate (%) ([1]; 2 month) | appearance of solution ([2]; after 1 month at 40° C.) | appearance of solution ([2]; after 2 month at 40° C.) | turbidity Abs(600 nm) ([2]; after 2 month at 40° C.) | appearance of solution ([2]; initial) | stability (in words) ([1]; acceleration stability test at 40° C.) | turbidity upon being dissolved into water (in words) ([2]; after storage at 40° C.) | Structure (SMILES) |
| --- | --- | --- | --- | --- | --- | --- | --- | --- | --- | --- | --- | --- | --- | --- |
| white | 99.0 | white | 100.0 | 0.007 | 0.006 |  |  |  |  |  |  |  |  | CCO/N=C(\C(=O)N[C@@H]1C(=O)N2C(C(=O)[O-])=C(C[n+]3cccc4c3NCN4CCCNC)CS[C@H]12)c1nsc(N)n1 [Example 6(2)] |
| pale | 94.8 | pale | 100.0 | 0.565 | 0.001 | pale | 92.9 | Yellow | Yellow | 1.338 | pale |  |  | CCO/N=C(\C(=O)N[C@@H]1C(=O)N2C(C(=O)[O-])=C(C[n+]3cccc4c3ncn4CCCNC)CS[C@H]12)c1nsc(N)n1 [hydrochloride, reference compound] |
| white | 99.6 | white | 100.0 | 0.011 | 0.000 |  |  |  |  |  |  |  |  | CCO/N=C(\C(=O)N[C@@H]1C(=O)N2C(C(=O)[O-])=C(C[n+]3cccc4c3NCN4CCCNC)CS[C@H]12)c1nsc(N)n1 [Example 6(1)] |
|  | 98.5 | white powder | 100.0 | 0.002 | 0.002 |  |  |  |  |  |  | high stability for a long period | turbidity was hardly observed | CCO/N=C(\C(=O)N[C@@H]1C(=O)N2C(C(=O)[O-])=C(C[n+]3cccc4c3NCN4CCCNC)CS[C@H]12)c1nsc(N)n1 [Example 10] |
